Test results taken from US5610063A, “cDNA for α-N-acetyl-galactosaminidase from Gallus domesticus” (Curators of the University of Missouri, priority 1995, dated 1997).

Target: T1, Gallus N-acetyl-α-D-galactosaminidase (Gallus gallus, UniProt Q90744)
T1 construct: the cDNA clone corresponds to the region of the mRNA encoding the mature polypeptide for the chicken α-N-acetyl-galactosaminidase; from tissue; host or cells: chicken liver
T1 sequence (Q90744 1-405 S162A): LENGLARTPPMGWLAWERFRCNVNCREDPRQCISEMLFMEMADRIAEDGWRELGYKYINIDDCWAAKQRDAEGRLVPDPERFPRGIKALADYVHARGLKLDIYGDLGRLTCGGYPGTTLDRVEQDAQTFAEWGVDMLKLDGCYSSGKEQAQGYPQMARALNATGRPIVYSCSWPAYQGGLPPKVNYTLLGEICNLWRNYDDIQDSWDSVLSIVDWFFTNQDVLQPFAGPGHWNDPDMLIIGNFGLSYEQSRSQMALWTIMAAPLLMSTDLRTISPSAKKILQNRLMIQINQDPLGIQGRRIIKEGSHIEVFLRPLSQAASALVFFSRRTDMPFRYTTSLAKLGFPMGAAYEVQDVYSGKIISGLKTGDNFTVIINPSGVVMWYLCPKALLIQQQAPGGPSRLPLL
Assay: Substrate specificity (relative activity)
Type: biochemical, Gallus domesticus
Conditions: % of enzyme activity on the corresponding conjugate, 2.5 mM PNP conjugates, pH 3.5

[1] = Table IV, Example 1 preparation
[2] = Table VI, improved purification (Example 2)

| Structure (SMILES) | Relative Activity [1] | Relative Activity [2] |
| --- | --- | --- |
| Cc1cc(=O)oc2cc(O[C@H]3O[C@H](CO)[C@H](O)[C@H](O)[C@H]3O)ccc12 [4-MU-α-D-galactopyranoside] | 100.00% | 100.00% |
| O=[N+]([O-])c1ccc(O[C@@H]2O[C@H](CO)[C@H](O)[C@H](O)[C@H]2O)cc1 [PNP-β-D-galactopyranoside] | < 0.08% | < 0.08% |
| C[C@@H]1O[C@@H](Oc2ccc([N+](=O)[O-])cc2)[C@@H](O)[C@H](O)[C@@H]1O [PNP-α-L-fucopyranoside] | < 0.08% | < 0.08% |
| CC(=O)N[C@H]1[C@H](Oc2ccc([N+](=O)[O-])cc2)O[C@H](CO)[C@H](O)[C@@H]1O [PNP-N-acetyl-β-D-galactosaminide] | < 0.08% | < 0.08% |
| C[C@@H]1O[C@H](Oc2ccc([N+](=O)[O-])cc2)[C@@H](O)[C@H](O)[C@@H]1O [PNP-β-L-fucopyranoside] | < 0.08% | < 0.08% |
| CC(=O)N[C@H]1[C@@H](Oc2ccc([N+](=O)[O-])cc2)O[C@H](CO)[C@H](O)[C@@H]1O [PNP-N-acetyl-α-D-galactosaminide] | 100.00% | 100.00% |
| O=[N+]([O-])c1ccc(O[C@@H]2OC[C@H](O)[C@H](O)[C@H]2O)cc1 [PNP-α-L-arabinopyranoside] | < 0.08% | < 0.08% |

Results, then the compound that gave them:

| Relative Activity [1] | Relative Activity [2] | Structure (SMILES) |
| --- | --- | --- |
| < 0.01% | < 0.01% | CC(=O)NC1C(O)CC(Oc2ccc3c(C)cc(=O)oc3c2)(C(=O)O)OC1C(O)C(O)CO (stereo not drawn) [4-MU-N-acetyl-α-neuraminic acid] |
| < 0.08% | < 0.08% | O=[N+]([O-])c1ccc(O[C@H]2O[C@H](CO)[C@@H](O)[C@H](O)[C@H]2O)cc1 [PNP-α-D-glucopyranoside] |
| < 0.08% | < 0.08% | O=[N+]([O-])c1ccc(O[C@@H]2O[C@H](CO)[C@@H](O)[C@H](O)[C@H]2O)cc1 [PNP-β-D-glucopyranoside] |
| < 0.08% | < 0.08% | CC(=O)N[C@H]1[C@H](Oc2ccc([N+](=O)[O-])cc2)O[C@H](CO)[C@@H](O)[C@@H]1O [PNP-N-acetyl-β-D-glucosaminide] |
| < 0.08% | < 0.08% | CC(=O)N[C@H]1[C@@H](Oc2ccc([N+](=O)[O-])cc2)O[C@H](CO)[C@@H](O)[C@@H]1O [PNP-N-acetyl-α-D-glucosaminide] |
